{"source": "patent US20250368648A1", "about": "“MULTI-CYCLIC IRAK AND FLT3 INHIBITING COMPOUNDS AND USES THEREOF” (CHILDREN'S HOSPITAL MEDICAL CENTER, priority 2022, published 2025)", "conditions_in_all_cases": "no ATP", "key": {"FLT3 N841I": {"molecular_target": "T1, FLT3 N841I (Homo sapiens, UniProt P36888, N841I)", "T1 construct": "purchased DiscoverX (KINOMEscan); host or cells: E. coli (T7 phage) or HEK-293", "T1 sequence (P36888 27-993 N841I)": "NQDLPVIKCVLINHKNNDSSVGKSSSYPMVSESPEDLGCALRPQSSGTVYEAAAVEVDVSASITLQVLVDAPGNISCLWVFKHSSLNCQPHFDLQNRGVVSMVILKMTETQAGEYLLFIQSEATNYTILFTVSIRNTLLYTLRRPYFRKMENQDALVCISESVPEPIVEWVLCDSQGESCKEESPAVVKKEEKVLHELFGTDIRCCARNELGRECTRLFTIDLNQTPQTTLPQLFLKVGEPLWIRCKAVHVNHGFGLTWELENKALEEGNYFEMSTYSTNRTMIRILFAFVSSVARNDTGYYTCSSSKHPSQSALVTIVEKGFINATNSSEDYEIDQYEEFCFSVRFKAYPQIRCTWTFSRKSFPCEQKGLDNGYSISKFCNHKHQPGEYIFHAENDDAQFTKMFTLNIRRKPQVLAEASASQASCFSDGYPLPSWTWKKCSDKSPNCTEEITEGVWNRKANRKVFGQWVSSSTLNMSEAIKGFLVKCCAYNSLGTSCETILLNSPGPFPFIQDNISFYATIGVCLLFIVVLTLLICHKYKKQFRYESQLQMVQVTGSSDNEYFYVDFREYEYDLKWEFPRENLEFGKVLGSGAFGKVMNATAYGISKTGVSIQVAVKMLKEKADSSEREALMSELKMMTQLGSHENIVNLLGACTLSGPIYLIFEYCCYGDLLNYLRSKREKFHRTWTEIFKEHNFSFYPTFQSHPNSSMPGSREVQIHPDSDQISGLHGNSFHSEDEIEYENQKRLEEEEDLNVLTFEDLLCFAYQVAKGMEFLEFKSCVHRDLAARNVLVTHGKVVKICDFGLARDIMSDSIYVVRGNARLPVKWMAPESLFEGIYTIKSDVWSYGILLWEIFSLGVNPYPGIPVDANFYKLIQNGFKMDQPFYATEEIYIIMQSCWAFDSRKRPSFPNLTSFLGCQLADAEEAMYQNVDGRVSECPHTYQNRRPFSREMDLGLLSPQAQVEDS", "assay": "DiscoverX KINOMEscan competition binding, FLT3 N841I", "text": "(§1) Kinase binding data were obtained for various exemplary compounds prepared according to Examples 2-15 using the DiscoverX KINOMEscan® active site-directed competition binding site-directed assay protocol described below. […] As a result, the data report thermodynamic interaction affinities (Kd values), rather than IC50 values that are dependent on ATP concentrations. The assay uses a DNA-tagged version of the protein kinase, and an immobilized ligand bound to a solid support. Compounds that directly or indirectly prevent kinase binding to the immobilized ligand reduce the amount of kinase captured on the solid support, which is detected using an ultra-sensitive qPCR method. Affinity constants reported from the assay have been reported to be independent of the immobilized ligand used that is coupled to the solid support (See supplemental information in Fabian, M. A. et. al., (2005) Nat. […] Wodicka, L. […] Biol. 17, 1241-1249.) Kinase-tagged T7 phage strains were prepared in an E. coli host derived from the BL21 strain. E. coli were grown to log-phase and infected with T7 phage and incubated with shaking at 32° C. until lysis. […] Kds were determined using an 11-point 3-fold compound dilution series with three DMSO control points. […] The kinase concentration in the eluates was measured by qPCR. Binding constants (Kds) were calculated with a standard dose-response curve using the Hill equation. […]"}, "FLT3 ITD": {"molecular_target": "T2, FLT3 ITD (Homo sapiens, UniProt P36888)", "T2 construct": "fused on or other part: DNA tag for qPCR read-out (T7 phage fusion, or DNA-tagged kinase made in HEK-293 cells)", "T2 sequence (P36888 1-993)": "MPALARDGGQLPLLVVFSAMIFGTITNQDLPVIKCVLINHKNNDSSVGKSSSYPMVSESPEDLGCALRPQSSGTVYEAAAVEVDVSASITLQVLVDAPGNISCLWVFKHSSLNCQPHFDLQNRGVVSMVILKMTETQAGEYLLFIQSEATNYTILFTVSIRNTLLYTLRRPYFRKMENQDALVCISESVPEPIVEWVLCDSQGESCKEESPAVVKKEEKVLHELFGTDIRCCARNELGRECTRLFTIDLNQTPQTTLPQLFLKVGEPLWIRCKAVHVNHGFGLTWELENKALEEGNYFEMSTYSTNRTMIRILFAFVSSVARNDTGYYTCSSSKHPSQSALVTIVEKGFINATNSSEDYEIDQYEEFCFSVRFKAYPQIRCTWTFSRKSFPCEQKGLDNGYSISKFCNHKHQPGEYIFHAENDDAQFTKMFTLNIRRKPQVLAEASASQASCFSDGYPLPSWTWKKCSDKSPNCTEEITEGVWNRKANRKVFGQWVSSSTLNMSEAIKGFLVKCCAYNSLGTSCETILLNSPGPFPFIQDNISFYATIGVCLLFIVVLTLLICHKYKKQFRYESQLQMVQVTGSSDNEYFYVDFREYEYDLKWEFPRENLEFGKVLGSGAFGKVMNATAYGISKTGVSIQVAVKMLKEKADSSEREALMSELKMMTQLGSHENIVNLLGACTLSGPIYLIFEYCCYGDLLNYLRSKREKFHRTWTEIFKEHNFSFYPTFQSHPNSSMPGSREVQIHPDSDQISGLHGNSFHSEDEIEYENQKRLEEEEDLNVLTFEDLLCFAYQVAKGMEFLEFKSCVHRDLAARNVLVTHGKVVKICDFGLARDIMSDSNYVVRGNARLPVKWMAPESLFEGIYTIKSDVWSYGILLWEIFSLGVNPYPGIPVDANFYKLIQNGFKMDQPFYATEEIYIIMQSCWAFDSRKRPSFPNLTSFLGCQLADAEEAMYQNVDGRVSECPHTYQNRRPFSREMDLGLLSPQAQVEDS", "assay": "DiscoverX KINOMEscan competition binding, FLT3 ITD", "text": "as §1"}, "IRAK1": {"molecular_target": "T3, IRAK1 (Homo sapiens, UniProt P51617)", "T3 construct": "purchased RBC (Reaction Biology) HotSpot assay", "T3 sequence (P51617 whole entry)": "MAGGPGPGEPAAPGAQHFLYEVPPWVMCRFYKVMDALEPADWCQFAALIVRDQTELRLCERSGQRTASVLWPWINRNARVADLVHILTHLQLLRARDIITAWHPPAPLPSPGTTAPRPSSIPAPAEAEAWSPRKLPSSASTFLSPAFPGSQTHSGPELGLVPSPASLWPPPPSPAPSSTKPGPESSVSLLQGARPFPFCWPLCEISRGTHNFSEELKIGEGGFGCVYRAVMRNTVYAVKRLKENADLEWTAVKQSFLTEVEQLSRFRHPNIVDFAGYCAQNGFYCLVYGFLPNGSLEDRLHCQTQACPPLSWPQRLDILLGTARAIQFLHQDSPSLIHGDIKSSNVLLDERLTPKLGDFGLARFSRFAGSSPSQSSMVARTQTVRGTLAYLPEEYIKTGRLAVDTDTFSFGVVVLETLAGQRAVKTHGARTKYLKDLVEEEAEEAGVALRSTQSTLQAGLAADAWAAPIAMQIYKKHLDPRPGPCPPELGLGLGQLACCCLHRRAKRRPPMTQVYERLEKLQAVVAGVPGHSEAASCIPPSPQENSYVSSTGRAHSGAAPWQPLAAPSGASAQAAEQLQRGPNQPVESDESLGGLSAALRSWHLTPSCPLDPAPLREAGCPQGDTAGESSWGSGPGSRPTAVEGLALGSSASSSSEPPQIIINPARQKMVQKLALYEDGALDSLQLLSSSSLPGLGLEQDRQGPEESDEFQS", "assay": "DiscoverX KINOMEscan competition binding, IRAK1", "text": "as §1"}}}
{"smiles": "COc1cc2ncc(-c3nc(N[C@H]4CNCC[C@@H]4F)c(F)cc3F)n2nc1C1CCC1", "note": "[Compound 15a, 6-(6-cyclobutyl-7-methoxyimidazo[1,2-b]pyridazin-3-yl)-3,5-difluoro-N-((3S,4S)-4-fluoropiperidin-3-yl)pyridin-2-amine]", "values": [{"measurement": "Kd", "setting": "FLT3 N841I", "result": 0.25, "unit": "nM"}, {"measurement": "Kd", "setting": "FLT3 ITD", "result": 0.43, "unit": "nM"}, {"measurement": "Kd", "setting": "IRAK1", "result": 1.4, "unit": "nM"}]}
